Broadly, the Ki is the equilibrium dissociation constant of an inhibitor or competing ligand from its target.

HPK1, sequence (Q92918 1-346 limits assumed): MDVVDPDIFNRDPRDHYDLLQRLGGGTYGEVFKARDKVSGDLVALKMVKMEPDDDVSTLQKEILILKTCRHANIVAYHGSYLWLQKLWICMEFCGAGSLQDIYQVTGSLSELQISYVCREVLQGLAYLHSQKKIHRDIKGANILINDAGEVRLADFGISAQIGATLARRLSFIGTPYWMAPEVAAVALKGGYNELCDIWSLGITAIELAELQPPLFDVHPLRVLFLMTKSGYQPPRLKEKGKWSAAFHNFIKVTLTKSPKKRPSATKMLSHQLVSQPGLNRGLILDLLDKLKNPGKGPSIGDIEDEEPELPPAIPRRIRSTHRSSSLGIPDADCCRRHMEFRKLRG

This assay has as its target HPK1 (Homo sapiens (Human), UniProt Q92918). The assay is described as follows: HPK1 Lantha binding assay ("Lanth"). As to conditions: binding assays; Morrison Ki fit. The method in brief: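 Ki values are from Morrison-equation fitting of 665/615 nm TR-FRET signals, taking enzyme level, tracer level and tracer Kd into account. The assay mix held HPK1 (2 nM), Eu-anti-GST antibody (2 nM) and Tracer222 (15 nM). Incubations were two 1 h steps at 23 °C, on 5-fold serial compound dilutions.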
`CN1CCN(c2cc(Cl)cc3c(-c4cnc5c(c4)C4(CC4)CN5)c[nH]c23)C(=O)C1` [Compound 310, 1-(5-Chloro-3-(1′,2′-dihydrospiro[cyclopropane-1,3′-pyrrolo[2,3-b]pyridin]-5′-yl)-1H-indol-7-yl)-4-methylpiperazin-2-one] displayed an inhibition constant Ki of 10.6 nM.

For `NC(=O)CCn1cc(-c2cnc3c(c2Cl)C2(CC=CC2)CN3)cn1` [Compound 311, 3-(4-(4′-Chloro-1′,2′-dihydrospiro[cyclopentane-1,3′-pyrrolo[2,3-b]pyridin]-3-en-5′-yl)-1H-pyrazol-1-yl)propanamide], affinity was put at a Ki of 161 nM.

Take `Clc1ccc2[nH]cc(-c3cnc4c(c3)C3(CC3)CN4)c2c1` [Compound 312, 5′-(5-Chloro-1H-indol-3-yl)-1′,2′-dihydrospiro[cyclopropane-1,3′-pyrrolo[2,3-b]pyridine]]: the Ki was 45.9 nM.

`Cc1ccc2[nH]cc(-c3cnc4c(c3)C3(CC3)CN4)c2c1` [Compound 313, 5′-(5-Methyl-1H-indol-3-yl)-1′,2′-dihydrospiro[cyclopropane-1,3′-pyrrolo[2,3-b]pyridine]]: affinity was put at a Ki of 73.1 nM.

As for `c1ccc2c(-c3cnc4c(c3)C3(CC3)CN4)c[nH]c2c1` [Compound 314, 5′-(1H-Indol-3-yl)-1′,2′-dihydrospiro[cyclopropane-1,3′-pyrrolo[2,3-b]pyridine]], affinity was put at a Ki of 125 nM.

`COc1c(-c2c[nH]c3ccc(C#N)cc23)cnc2c1C1(CC1)CN2` [Compound 315, 3-(4′-Methoxy-1′,2′-dihydrospiro[cyclopropane-1,3′-pyrrolo[2,3-b]pyridin]-5′-yl)-1H-indole-5-carbonitrile] displayed a Ki of 34.4 nM.

`Fc1cccc2[nH]cc(-c3cnc4c(c3)C3(CC3)CN4)c12` [Compound 316, 5′-(4-Fluoro-1H-indol-3-yl)-1′,2′-dihydrospiro[cyclopropane-1,3′-pyrrolo[2,3-b]pyridine]]: the Ki was 492 nM.

As to `OCCn1cc(-c2cnc3c(c2Cl)C2(CC=CC2)CN3)cn1` [Compound 317, 2-(4-(4′-Chloro-1′,2′-dihydrospiro[cyclopentane-1,3′-pyrrolo[2,3-b]pyridin]-3-en-5′-yl)-1H-pyrazol-1-yl)ethan-1-ol], the affinity corresponds to a Ki of 209 nM.

`NC(=O)Cn1cc(-c2cnc3c(c2Cl)C2(CC=CC2)CN3)cn1` [Compound 318, 2-(4-(4′-Chloro-1′,2′-dihydrospiro[cyclopentane-1,3′-pyrrolo[2,3-b]pyridin]-3-en-5′-yl)-1H-pyrazol-1-yl)acetamide]: the affinity, expressed as Ki, was 236 nM.

The compound `CN(C)C(=O)Cn1cc(-c2cnc3c(c2Cl)C2(CC=CC2)CN3)cn1` [Compound 319, 2-(4-(4′-Chloro-1′,2′-dihydrospiro[cyclopentane-1,3′-pyrrolo[2,3-b]pyridin]-3-en-5′-yl)-1H-pyrazol-1-yl)-N,N-dimethylacetamide] returned a Ki of 306 nM.

In turn, `CC(C)(O)Cn1cc(-c2cnc3c(c2Cl)C2(CC=CC2)CN3)cn1` [Compound 320, 1-(4-(4′-Chloro-1′,2′-dihydrospiro[cyclopentane-1,3′-pyrrolo[2,3-b]pyridin]-3-en-5′-yl)-1H-pyrazol-1-yl)-2-methylpropan-2-ol] displayed an inhibitory constant (Ki) of 337 nM.

With `Cc1[nH]ncc1-c1cnc2c(c1)C1(CC1)CN2` [Compound 321, 5′-(5-Methyl-1H-pyrazol-4-yl)-1′,2′-dihydrospiro[cyclopropane-1,3′-pyrrolo[2,3-b]pyridine]], the affinity, expressed as Ki, was 321 nM.

Compound `N#Cc1ccc2[nH]nc(-c3cnc4c(c3)C3(CC3)CN4)c2c1` [Compound 322, 3-(1′,2′-Dihydrospiro[cyclopropane-1,3′-pyrrolo[2,3-b]pyridin]-5′-yl)-1H-indazole-5-carbonitrile] gave an inhibition constant Ki of 37.3 nM.

`Clc1c(-c2cnn(Cc3ccccc3)c2)cnc2c1C1(CC=CC1)CN2` [Compound 323, 5′-(1-Benzyl-1H-pyrazol-4-yl)-4′-chloro-1′,2′-dihydrospiro[cyclopentane-1,3′-pyrrolo[2,3-b]pyridin]-3-ene] came in with an inhibition constant Ki of 603 nM.

The record behind these values is patent US12208088B2 (Genentech, Inc., priority 2018, dated 2025).
